# From US20090269794A1, “SCREENING METHOD FOR COMPOUND INHIBITING DEVELOPMENT OR PROGRESSION OF FAMILIAL AMYOTROPHIC LATERAL SCLEROSIS AND DIAGNOSTIC METHOD FOR FAMILIAL AMYOTROPHIC LATERAL SCLEROSIS” (HISAMITSU PHARMACEUTICAL CO., INC., priority 2005, published 2009)
# How the values were obtained:
# HIF-1α = conditions: cells exposed to DFO, normal oxygen conditions, Non-patent document 12; cited from earlier work
# NEDL1 mRNA = NEDL1 mRNA expression by semi-quantitative RT-PCR in SK-N-BE (2) C cells; assay type: cell-based, human; conditions: 250 μM DFO for 24 hours, FIG. 2
# Protocol: Human neuroblastoma SK-N-BE (2) C cells were cultured in Dulbecco's […] (DMEM) containing 10% heat treated fetal bovine serum (FBS). Hypoxia culturing was carried out in a 2% oxygen concentration, with the cells in a Napco automatic O2/CO2 cell culture apparatus (Waken Co., Ltd.). DFO (Sigma) treatment was carried out by exposing the cells to 250 μM DFO for 24 hours.
# (Reverse Transcription Polymerase Chain Reaction (RT-PCR)) TRIZOL reagent (Invitrogen Corp.) was used according to the manufacturer's manual to prepare total RNA from untreated, hypoxia-treated, DFO-treated cells and the transfected cells. RT-PCR was conducted in the following manner. The prepared total RNA (1 μg/2.5 μL) was incubated at 75° C. for 5 minutes and then allowed to stand on ice for 5 minutes. The prepared RNA was added to a mixture of 0.5 μL RNase inhibitor (40 units/μL, Toyobo, Ltd.), 0.5 μL M-MLV reverse transcriptase (200 units/μL, Invitrogen Corp.), 1 μL 50×dNTPs (2 mM each), 0.5 μL oligo(dT) primer (0.5 mg/mL, Invitrogen Corp.), 2 μL 5×first-strand buffer (Invitrogen Corp.) and 1 μL 0.1 M dithiothreitol, and the mixture was incubated for 10 minutes at room temperature, 45 minutes at 37° C. and 3 minutes at 95° C. to prepare cDNA. The prepared cDNA was used as template with the primers under the following PCR conditions to amplify the NEDL1 and β-actin gene cDNA fragments. […]
smiles,measurement,setting,value
"CC(=O)N(O)CCCCCNC(=O)CCC(=O)N(O)CCCCCNC(=O)CCC(=O)N(O)CCCCCN [DFO, desferrioxamine]",HIF-1α detection as protein,HIF-1α,detected
same,NEDL1 mRNA expression,NEDL1 mRNA,increased
